Assay [1] can be described thus: Binding affinity to poly(A) tail mRNA (unknown origin) assessed as induction of self-structure formation by circular dichroic spectroscopy.
A short description of assay [2]: Binding affinity to poly(A) tail mRNA (unknown origin) assessed as melting temperature of poly(A) self-structure by UV absorption/CD melting analysis.
A short description of assay [3]: Binding affinity to poly(A) tail mRNA (unknown origin) assessed as induction of self-structure formation by circular dichroism analysis. (CD spectra are sensitive to the conformation of chiral molecules.)
Assay [4] can be described thus: Binding affinity to poly(A) tail mRNA (unknown origin) assessed as association constant by isothermal titration calorimetry relative to berberine.
Assay [5] in a line: Binding affinity to poly(A) tail mRNA (unknown origin) assessed as apparent binding constant by absorption spectroscopy relative to berberine.

Structures are written as SMILES. Active and inactive are the calls of the source. The calls are words filed in the database; no cut-off is given here.

For the compound `COc1ccc2cc3[n+](cc2c1OCCCCCCN)CCc1cc2c(cc1-3)OCO2`, the result in assay [1] and in assay [3] was Active. Moreover, in assay [2], the Tm was determined as 59.5 °C. The Ratio in assay [4] stood at 10; in assay [5], 20.

As for `COc1ccc2cc3[n+](cc2c1OC)CCc1cc2c(cc1-3)OCO2` [BERBERINE], the outcome in assay [1] and in assay [3] was Active. Moreover, in assay [2], the Tm turned out to be 58 °C.

For `COc1ccc2cc3[n+](cc2c1OCCN)CCc1cc2c(cc1-3)OCO2`, the Tm in assay [2] was 59 °C. Also, in assay [4], the Ratio worked out at 3.

Turning to `COc1ccc2cc3[n+](cc2c1OCCCCN)CCc1cc2c(cc1-3)OCO2`, the result in assay [1] and in assay [3] was Active. For the same compound, in assay [2], the Tm was 58 °C.

Source of the values: ChEMBL document CHEMBL3217423, “Binding of 9-O-(-amino) alkyl ether analogues of the plant alkaloid berberine to poly(A): insights into self-structure induction” (Medchemcomm, 2011).
